Earlier results as cited in patent US5892063A (Hauser, Inc., priority 1997, dated 1999).

Legend:
microtubule = conditions: relative to paclitaxel; cited from earlier work
[1] = tested on: murine and human xenografts; conditions: cited from earlier work
tumor models = conditions: vs paclitaxel, cisplatin, cyclophosphamide, doxorubicin; same tumor models; cited from earlier work
[2] = cited from earlier work
[3] = tested on: murine and human tumor cell lines; conditions: cited from earlier work

In the case of `CC(=O)O[C@@]12CO[C@@H]1C[C@H](O)[C@@]1(C)C(=O)[C@H](O)C3=C(C)[C@@H](OC(=O)[C@H](O)[C@@H](NC(=O)OC(C)(C)C)c4ccccc4)C[C@@](O)([C@@H](OC(=O)c4ccccc4)[C@H]21)C3(C)C` [Docetaxel, docetaxel], the “potency as inhibitor of microtubule depolymerization vs paclitaxel” value (microtubule) is given as “twice as potent”, the “in vivo preclinical activity” value [1] is given as “impressive” and the “cytotoxic activity vs other antineoplastic agents” value (tumor models) is given as “higher cytoxic activity than other antineoplastic agents”. For the same compound, the aqueous solubility [2] was “low aqueous solubility” and the in vitro cytotoxicity [3] was “impressive”.
